Data taken from patent US9833497B2, “Human originated EGF domain proteins and use of the same” (CHENGDU SOURCEBIO LIMITED-LIABILITY COMPANY, priority 2013, dated 2017).

Columns and labels:
Type in all cases: cell-based
E. coli DH5α = assay: Antibacterial activity: MIC and growth curve against E. coli DH5α in 96-well plate; details: minimal inhibitory concentration against E. coli DH5α; 96-well plate, 5×10^5 CFU/mL, 37° C., judged after 8 h
Outline: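 MIC taken as lowest protein level with no bacterial growth, tracked by A600 every 30 min during 37 °C, 175 rpm culture. Two-fold protein series 50-12.5 μg/mL final, triplicate wells, against 5×10^5 CFU/mL of LB-washed mid-log cells.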

E. coli BL21 = assay: MIC against Gram-negative bacteria: E. coli BL21
Outline: (§1)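 Two-fold serial dilutions of each purified human EGF domain protein, three replicate wells per level, were combined with bacteria at a final 5×10^5 CFU/mL in LB. Cultures were shaken at 175 rpm, 37° C. The MIC was taken as the minimum concentration preventing growth.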

Pseudomonas aeruginosa = assay: MIC against Gram-negative bacteria: Pseudomonas aeruginosa
Outline: as §1

Klebsiella pneumonia = assay: MIC against Gram-negative bacteria: Klebsiella pneumonia
Outline: as §1

Enterobacter cloacae = assay: MIC against Gram-negative bacteria: Enterobacter cloacae
Outline: as §1

Aeromonas hydrophila = assay: MIC against Gram-negative bacteria: Aeromonas hydrophila
Outline: as §1

Citrobacter diversus = assay: MIC against Gram-negative bacteria: Citrobacter diversus
Outline: as §1

Moraxella catarrhalis = assay: MIC against Gram-negative bacteria: Moraxella catarrhalis
Outline: as §1

Proteus mirabilis = assay: MIC against Gram-negative bacteria: Proteus mirabilis
Outline: as §1

Proteus vulgaris = assay: MIC against Gram-negative bacteria: Proteus vulgaris
Outline: as §1

Serratia marcescens = assay: MIC against Gram-negative bacteria: Serratia marcescens
Outline: as §1

[1] = 10 h cultivation at 37° C., 5×10^5 CFU/mL, two-fold serial dilution
[2] = 96-well plate, 5×10^5 CFU/mL, 37° C., 10 h
[3] = E. coli BL21, 5×10^5 CFU/mL, 10 h cultivation at 37° C.
[4] = Pseudomonas aeruginosa, 5×10^5 CFU/mL, 10 h cultivation at 37° C.
[5] = Klebsiella pneumonia, 5×10^5 CFU/mL, 10 h cultivation at 37° C.
[6] = Enterobacter cloacae, 5×10^5 CFU/mL, 10 h cultivation at 37° C.
[7] = Aeromonas hydrophila, 5×10^5 CFU/mL, 10 h cultivation at 37° C.
[8] = Citrobacter diversus, 5×10^5 CFU/mL, 10 h cultivation at 37° C.
[9] = Moraxella catarrhalis, 5×10^5 CFU/mL, 10 h cultivation at 37° C.
[10] = Proteus mirabilis, 5×10^5 CFU/mL, 10 h cultivation at 37° C.
[11] = Proteus vulgaris, 5×10^5 CFU/mL, 10 h cultivation at 37° C.
[12] = Serratia marcescens, 5×10^5 CFU/mL, 10 h cultivation at 37° C.

Substance: PRT1165 (NRAICRQGCSPKHGSCKLPGDCRCQYGWQGLYCD; listed as Homo sapiens)
- MIC (E. coli DH5α): 50 µg/mL
- MIC E. coli BL21 (E. coli BL21; [1]): 25 µg/mL
- MIC P. aeruginosa (Pseudomonas aeruginosa; [1]): 12.5 µg/mL
- MIC K. pneumonia (Klebsiella pneumonia; [1]): 25 µg/mL
- MIC E. cloacae (Enterobacter cloacae; [1]): 50 µg/mL
- MIC A. hydrophila (Aeromonas hydrophila; [1]): 25 µg/mL
- MIC C. diversus (Citrobacter diversus; [1]): 12.5 µg/mL
- MIC M. catarrhalis (Moraxella catarrhalis; [1]): 25 µg/mL
- MIC P. mirabilis (Proteus mirabilis; [1]): 50 µg/mL
- MIC P. vulgaris (Proteus vulgaris; [1]): 25 µg/mL
- MIC S. marcescens (Serratia marcescens; [1]): 12.5 µg/mL

Substance: PRT827 (HLECSCHNNSTCEPATGTCRCGPGFYGQACE; listed as Homo sapiens)
- MIC (E. coli DH5α): 12.5 µg/mL
- MIC (μg/mL) E. coli BL21 (E. coli BL21; E. coli BL21, 10 h cultivation at 37° C., 5×10^5 CFU/mL): 25 µg/mL
- MIC (μg/mL) P. aeruginosa (Pseudomonas aeruginosa; P. aeruginosa, 10 h cultivation at 37° C., 5×10^5 CFU/mL): 12.5 µg/mL
- MIC (μg/mL) K. pneumonia (Klebsiella pneumonia; K. pneumonia, 10 h cultivation at 37° C., 5×10^5 CFU/mL): 12.5 µg/mL
- MIC (μg/mL) E. cloacae (Enterobacter cloacae; E. cloacae, 10 h cultivation at 37° C., 5×10^5 CFU/mL): 50 µg/mL
- MIC (μg/mL) A. hydrophila (Aeromonas hydrophila; A. hydrophila, 10 h cultivation at 37° C., 5×10^5 CFU/mL): 25 µg/mL
- MIC (μg/mL) C. diversus (Citrobacter diversus; C. diversus, 10 h cultivation at 37° C., 5×10^5 CFU/mL): 12.5 µg/mL
- MIC (μg/mL) M. catarrhalis (Moraxella catarrhalis; M. catarrhalis, 10 h cultivation at 37° C., 5×10^5 CFU/mL): 25 µg/mL
- MIC (μg/mL) P. mirabilis (Proteus mirabilis; P. mirabilis, 10 h cultivation at 37° C., 5×10^5 CFU/mL): 50 µg/mL
- MIC (μg/mL) P. vulgaris (Proteus vulgaris; P. vulgaris, 10 h cultivation at 37° C., 5×10^5 CFU/mL): 12.5 µg/mL
- MIC (μg/mL) S. marcescens (Serratia marcescens; S. marcescens, 10 h cultivation at 37° C., 5×10^5 CFU/mL): 50 µg/mL

Substance: PRT1006 (PLSSCQKAALSQGIDVSSLCHNGGLCVDSGPSYFCHCPPGFQGSLCQ; listed as Homo sapiens)
- MIC (E. coli DH5α): 12.5 µg/mL
- MIC (E. coli BL21; E. coli BL21, 10 h cultivation at 37° C.): 50 µg/mL
- MIC (Pseudomonas aeruginosa; P. aeruginosa, 10 h cultivation at 37° C.): 12.5 µg/mL
- MIC (Klebsiella pneumonia; K. pneumonia, 10 h cultivation at 37° C.): 50 µg/mL
- MIC (Enterobacter cloacae; E. cloacae, 10 h cultivation at 37° C.): 12.5 µg/mL
- MIC (Aeromonas hydrophila; A. hydrophila, 10 h cultivation at 37° C.): 50 µg/mL
- MIC (Citrobacter diversus; C. diversus, 10 h cultivation at 37° C.): 25 µg/mL
- MIC (Moraxella catarrhalis; M. catarrhalis, 10 h cultivation at 37° C.): 12.5 µg/mL
- MIC (Proteus mirabilis; P. mirabilis, 10 h cultivation at 37° C.): 25 µg/mL
- MIC (Proteus vulgaris; P. vulgaris, 10 h cultivation at 37° C.): 50 µg/mL
- MIC (Serratia marcescens; S. marcescens, 10 h cultivation at 37° C.): 25 µg/mL

Substance: PRT554 (CNCESDFTDGTCEDLTGRCYCRPNFSGERCDVCAEGFTGFPSCYPT; listed as Homo sapiens)
- MIC (E. coli DH5α): 12.5 µg/mL
- MIC against E. coli BL21 (E. coli BL21; [2]): 50 µg/mL
- MIC against P. aeruginosa (Pseudomonas aeruginosa; [2]): 12.5 µg/mL
- MIC against K. pneumonia (Klebsiella pneumonia; [2]): 50 µg/mL
- MIC against E. cloacae (Enterobacter cloacae; [2]): 25 µg/mL
- MIC against A. hydrophila (Aeromonas hydrophila; [2]): 12.5 µg/mL
- MIC against C. diversus (Citrobacter diversus; [2]): 25 µg/mL
- MIC against M. catarrhalis (Moraxella catarrhalis; [2]): 50 µg/mL
- MIC against P. mirabilis (Proteus mirabilis; [2]): 25 µg/mL
- MIC against P. vulgaris (Proteus vulgaris; [2]): 12.5 µg/mL
- MIC against S. marcescens (Serratia marcescens; [2]): 25 µg/mL

Substance: PRT1409 (RACHPRCAEHGTCKDGKCECSQGWNGEHCT; listed as Homo sapiens)
- MIC (E. coli DH5α): 12.5 µg/mL
- MIC against E. coli BL21 (E. coli BL21; [3]): 12.5 µg/mL
- MIC against P. aeruginosa (Pseudomonas aeruginosa; [4]): 12.5 µg/mL
- MIC against K. pneumonia (Klebsiella pneumonia; [5]): 12.5 µg/mL
- MIC against E. cloacae (Enterobacter cloacae; [6]): 12.5 µg/mL
- MIC against A. hydrophila (Aeromonas hydrophila; [7]): 12.5 µg/mL
- MIC against C. diversus (Citrobacter diversus; [8]): 12.5 µg/mL
- MIC against M. catarrhalis (Moraxella catarrhalis; [9]): 12.5 µg/mL
- MIC against P. mirabilis (Proteus mirabilis; [10]): 50 µg/mL
- MIC against P. vulgaris (Proteus vulgaris; [11]): 12.5 µg/mL
- MIC against S. marcescens (Serratia marcescens; [12]): 50 µg/mL

Substance: PRT1397 (PMNQCIDPSCGGHGSCIDGNCVCSAGYKGEHCE; listed as Homo sapiens)
- MIC (E. coli DH5α): 50 µg/mL
- MIC against E. coli BL21 (E. coli BL21; [3]): 25 µg/mL
- MIC against P. aeruginosa (Pseudomonas aeruginosa; [4]): 12.5 µg/mL
- MIC against K. pneumonia (Klebsiella pneumonia; [5]): 50 µg/mL
- MIC against E. cloacae (Enterobacter cloacae; [6]): 12.5 µg/mL
- MIC against A. hydrophila (Aeromonas hydrophila; [7]): 50 µg/mL
- MIC against C. diversus (Citrobacter diversus; [8]): 25 µg/mL
- MIC against M. catarrhalis (Moraxella catarrhalis; [9]): 12.5 µg/mL
- MIC against P. mirabilis (Proteus mirabilis; [10]): 25 µg/mL
- MIC against P. vulgaris (Proteus vulgaris; [11]): 50 µg/mL
- MIC against S. marcescens (Serratia marcescens; [12]): 25 µg/mL
